We go through 17 compounds from PMC2913955, “Whole-cell fungal transformation of precursors into dyes” (Microbial Cell Factories, 2010).

A short description of series [1]: Cyclic voltammetry of precursors (oxidation and reduction potentials). It counts as physicochemical. The settings on record: for Eo (oxidation potential) / Er (reduction potential): 1 mM precursor, 100 mM Na-tartrate buffer pH 4.5, graphite working electrode, Ag/AgCl reference; for oxidation and reduction peaks: pH 4.5, scan rates of 25 to 200 mV/s. On the procedure: To find correlations between the degree of precursor transformation by fungi and its oxidation potential, cyclic voltammetry (CV) was done. All the tested compounds were characterized using CV at a graphite working electrode at pH 4.5.
Cyclic voltammetry of the tested precursors was performed using an MTM-Anko apparatus type M161 (Poland) equipped with a graphite working electrode, a platinum counter electrode, and an Ag/AgCl reference electrode. The precursors were dissolved using 100 mM Na-tartrate buffer, pH 4.5, to 1 mM final concentration. […] All potentials in this work were referred to the Ag/AgCl reference electrode.

Series [2] can be described thus: Autoxidation of precursors on agar plates without actively growing mycelium (control samples). As to Precursors autoxidation: key: - no; -/+ - slightly; + high; ++ very high. The format is physicochemical. The settings on record: 1 mM precursor in GPA agar; for Precursors autoxidation: without mycelium; for autoxidation (in words): control samples without mycelium. On the procedure:
(§1) Agar-plate screening of several different precursors, benzoic and naphthalene derivatives was performed using fungal biomass as a biocatalyst (Table 1). Among these precursors were chemicals consisting of amino-, hydroxy-, nitro-, sulfonic- and carboxy- substituents. The ability of the fungi to grow in the presence of the precursors and to transform the latter into coloured products was monitored during 14 days of the experiment. […] In order to check the autoxidation ability of the precursors, the appearance of their coloured products without the presence of actively growing mycelium was monitored (control samples).
(§2) The agar-plate screening test was performed using sterile 24-well tissue culture plates (16.2 mm in diameter). Each well contained 2.5 mL (± 0.2 mL) of sterile GPA medium with the addition of 2% agar and a precursor at a concentration of 1 mM. Each well was inoculated with one agar plug (3 mm in diameter) from the leading edge of colony, which had been maintained on MEA for at least 7 days at 25°C. The plates were incubated at 25°C, and the ability of the fungi to grow and transform the precursors into coloured products was monitored over the next 14 days.

Series [3] deals with Abortiporus biennis (AB123). In words: Agar-plate screening test, transformation of precursors into coloured products. The format is cell-based. The settings on record: strain AB123, 1 mM precursor. On the procedure:
as §1
(§3) The colour intensity of the products obtained during the biotransformation of the precursors by fungi was analyzed after 7 days of cultivation. This intensity was expressed by different numbers; the value 0 expressed a lack of colour and the values in the range from 1 to 4 expressed a rising intensity of colour.
as §2

The next series deals with Cerrena unicolor (CU139). The description is as above. The settings on record: strain CU139, 1 mM precursor. It counts as cell-based. Here is the method: as §1, §3, §2
For a further series, the system named is Fomes fomentarius (FF25). Described as above. It counts as cell-based. The following applies: strain FF25, 1 mM precursor. Here is the method:
as §1, §3, §2

In series [4] the test system is Trametes versicolor (TV7). The series is described as above. The settings on record: strain TV7, 1 mM precursor. The format is cell-based. On the procedure:
as §1, §3, §2

The next series deals with Caco-2 cells. In words: Neutral Red uptake assay (NRU) cytotoxicity. It counts as cell-based, human. The settings on record: Caco-2, precursor itself; for IC50: Homo sapiens. Here is the method:
The cytotoxicity of precursors and products was tested using the Neutral Red uptake assay (NRU) with Caco-2 cells (Table 5). The EU classifies a chemical to be not environmentally toxic if the IC50 is above 0.1 mg/mL, which was the case for the selected products as measured with the NRU test. […] In the case of the dyes obtained after transformation of AHBS and ANS by FF25, AB123, or TV7, all the samples had IC50's of more than 1 mg/mL and were essentially non-toxic. In the case of control cultures, growing without the addition of precursors, only the sample of TV7 was slightly toxic (IC50 = 0.85 mg/mL) while other control cultures (AB123, CU139, and FF25) had IC50's higher than one (Table 5).
The toxicity of precursors and products was evaluated using the Neutral Red uptake assay (NRU) with Caco-2 human intestinal cell-line as an in vitro test system. Samples of products were lyophilized and then dissolved in dimethyl sulfoxide (DMSO) to a stock solution concentration of 100 mg/mL. The cytotoxicity of dyes was expressed as the half-maximal inhibitory concentration (IC50 - mg/mL), where values higher than 1 represented low cytotoxicity, values within the range from 0.1 to 1 represented medium cytotoxicity, and values below 0.1 represented high cytotoxicity of samples [10]. Additionally, the cytotoxicity of the fungal liquid culture without precursors and products was checked as a control.

Values after ≈ are worked out from the molar mass of the structure shown. Values joined by “and” are separate entries in the source; they are usually repeats but may differ in a detail not shown here. Equal values may be shown once. Marks after values point to notes of the source that are not given here. A value given as a limit tells only on which side of the number the result lay.

Take `O.O.O.O.Oc1ccccc1-c1ccccc1.[Na]` [Precursor 2PP, 2-phenylphenol sodium salt tetrahydrate]: in series [1] (scan rate 50 mV/s), the “Eo (oxidation potential)” value amounted to 790 mV. Also, in series [2], the Precursors autoxidation result is “-”. The “growth of mycelium in the presence of precursor” value (in series [3]; in the series with Cerrena unicolor (CU139); with Fomes fomentarius (FF25); in series [4]) was “unable to grow” throughout.

As for `Nc1cc(S(=O)(=O)O)cc([N+](=O)[O-])c1O` [AHNBS, 3-amino-4-hydroxy-5-nitrobenzenesulfonic acid], in series [1] (scan rate 50 mV/s), the “Eo (oxidation potential)” value amounted to 579 mV and the “Er (reduction potential)” value is on record as -92 mV. Besides, in series [2], the “autoxidation (in words)” value was “very rapid and very intensive autoxidation”; the Precursors autoxidation result is reported as “+”.

Regarding `Nc1cc(S(=O)(=O)O)ccc1O` [AHBS, 3-amino-4-hydroxybenzenesulfonic acid], in series [1] (scan rate 50 mV/s), the “Eo (oxidation potential)” value was found to be 518 mV and the “Er (reduction potential)” value is -103 mV. In addition, the Precursors autoxidation result in series [2] was “-”. In the series on Caco-2 cells, the half-inhibitory concentration (IC50) is above 1000 µg/mL.

As for `Nc1ccc(S(=O)(=O)O)c(N)c1` [2,4DABS, 2,4-diaminobenzenesulfonic acid], in series [1] (scan rate 50 mV/s), the “Eo (oxidation potential)” value is 818 mV. The Precursors autoxidation entry in series [2] is listed as “-”.

Turning to `Oc1ccc2ccc(O)cc2c1` [DHN, 2,7-dihydroxynaphtalene], in series [1] (scan rate 50 mV/s), the “Eo (oxidation potential)” value was 672 mV. In series [2], the “autoxidation (in words)” value was “very slight autoxidation” and the Precursors autoxidation result was “-/+”. For the same compound, the “IC50 Precursor” value with Caco-2 cells was found to be 107 ± 3.6 µg/mL (≈ 668 µM).

As for `Nc1c(O)cc(S(=O)(=O)O)c2ccccc12` [Precursor 4AHNS, 4-amino-3-hydroxy-1-naphthalenesulfonic acid], the “Eo (oxidation potential)” value in series [1] (scan rate 50 mV/s) worked out at 251 mV. In series [2], the “autoxidation (in words)” value was “very rapid and very intensive autoxidation”; the Precursors autoxidation result was “++”.

`O.O=C(O)c1cc(S(=O)(=O)O)ccc1O` [Precursor 5SSA, 5-sulfosalicylic acid hydrate]: the “oxidation and reduction peaks” value in series [1] is given as “did not exhibit”. Moreover, the Precursors autoxidation entry in series [2] was “-”.

Consider `Nc1ccc(N)c(S(=O)(=O)O)c1` [2,5DABS, 2,5-diaminobenzenesulfonic acid], for which, in series [1] (scan rate 50 mV/s), the “Eo (oxidation potential)” value was found to be 433 mV; the “Er (reduction potential)” value is -356 mV and -356^a mV. In series [2], the “autoxidation (in words)” value is “very slight autoxidation” and the Precursors autoxidation result was “-/+”. Further, in the series on Caco-2 cells, the 50% inhibitory concentration (IC50) is above 1000 µg/mL.

In the case of `Nc1ccc2cc(S(=O)(=O)O)cc(O)c2c1` [Precursor 6AHNS, 6-amino-4-hydroxy-2-naphthalenesulfonic acid], in series [1] (scan rate 50 mV/s), the “Eo (oxidation potential)” value worked out at 499 mV. Besides, in series [2], the “autoxidation (in words)” value is listed as “very slight autoxidation” and the Precursors autoxidation result is “-/+”.

With `Nc1ccccc1S(=O)(=O)O` [Precursor A2SA, aniline-2-sulfonic acid], in series [1] (scan rate 50 mV/s), the “Eo (oxidation potential)” value came out at 1013 mV and the “Er (reduction potential)” value is -0.5 mV. The Precursors autoxidation result in series [2] was “-”.

For `Nc1ncccc1O` [Precursor 2A3HP, 2-amino-3-hydroxypyridine], the “Eo (oxidation potential)” value in series [1] (scan rate 50 mV/s) is listed as 647 mV. Further, in series [2], the “autoxidation (in words)” value is listed as “very slight autoxidation” and the Precursors autoxidation result is “-/+”. The midpoint of inhibition in the series with Caco-2 cells, the IC50, lay at 55 ± 28 µg/mL (≈ 499 µM).

`O=S(=O)([O-])c1ccc2cc(O)ccc2c1.[Na+]` [HNSA, 6-hydroxy-2-naphthalenesulfonic acid sodium salt]: in series [1] (scan rate 50 mV/s), the “Eo (oxidation potential)” value amounted to 893 mV and the “Er (reduction potential)” value is recorded as -144 mV. Besides, the Precursors autoxidation entry in series [2] is given as “-”.

With `Nc1cccc(S(=O)(=O)O)c1` [Precursor 3ABS, 3-aminobenzenesulfonic acid], in series [1] (scan rate 50 mV/s), the “Eo (oxidation potential)” value is listed as 968 mV and the “Er (reduction potential)” value is 5.4^a mV. The Precursors autoxidation entry in series [2] is listed as “-”.

With `Nc1cccc2c(S(=O)(=O)O)cccc12` [ANS, 5-amino-1-naphthalenesulfonic acid], the “Eo (oxidation potential)” value in series [1] (scan rate 50 mV/s) is 680 mV. For the same compound, the Precursors autoxidation entry in series [2] was “-”. This compound also yielded a half-inhibitory concentration (IC50) in the series with Caco-2 cells above 1000 µg/mL.

Consider `Oc1ccccc1O` [Cat, 1,2-dihydroxybenzene], for which, in series [1] (scan rate 50 mV/s), the “Eo (oxidation potential)” value is 548 mV and the “Er (reduction potential)” value is reported as 285 mV. The Precursors autoxidation entry in series [2] was “-”.

For the compound `O=Cc1ccccc1S(=O)(=O)[O-].[Na+]` [Precursor 2FBSA, 2-formylbenzenesulfonic acid sodium salt], the “oxidation and reduction peaks” value in series [1] is reported as “did not exhibit”. Also, in series [2], the Precursors autoxidation result is “-”.

As for `O=S(=O)(O)c1cc(O)c(O)c(S(=O)(=O)O)c1` [dHBdSA, 4,5-dihydroxy-1,3-benzene-disulfonic acid], in series [1] (scan rate 25 mV/s), the “Eo (oxidation potential)” value was 914^b mV. Further, the Precursors autoxidation result in series [2] is reported as “-”.
